Reference: ChEMBL document CHEMBL1148759, “Isolation, characterization, and biological evaluation of syn and anti diastereomers of [(99m)Tc]technetium depreotide: a somatostatin receptor binding tumor imaging agent” (J Med Chem, 2007)
Where a SMILES comes first, the peptide text is derived from it. [ ]: non-standard residue; d: D form. The star is where a group is joined. X1 = NCCCC[C@H](NC(=O)[C@H](CS)NC(=O)[C@H](CCCCN)NC(=O)[C@@H](N)CNC(=O)C*)C(N)=O; NMeF = CN[C@@H](Cc1ccccc1)C(=O)O; hCys = N[C@@H](CCS)C(=O)O

Assay: Displacement of [125I]somatostatin from SSTR in rat AR42J cells
Format: cell-based
Details: ar-42j

For `CC(C)[C@@H]1NC(=O)[C@H](CCCCN)NC(=O)[C@@H](Cc2c[nH]c3ccccc23)NC(=O)[C@H](Cc2ccc(O)cc2)NC(=O)[C@H](Cc2ccccc2)N(C)C(=O)[C@H](CCSCC(=O)NC[C@H](N)C(=O)N[C@@H](CCCCN)C(=O)N[C@@H](CS)C(=O)N[C@@H](CCCCN)C(N)=O)NC1=O` [DEPREOTIDE] (cyclo([hCys](X1)[NMeF]Y[dW]KV)), the IC50 was 7.4 nM.
